{"source": "patent US20260232763A1", "about": "(Kadmon Corporation, LLC, priority 2023, published 2026)", "key": {"[1]": {"tested_on": "bacterial mutagenicity (Ames)", "conditions": "cited from earlier work"}, "[2]": {"assay": "Example 3 Part 2 (Regimen B) dabigatran etexilate + belumosudil plasma PK", "assay_type": "in vivo, human", "conditions": "for half-life: read-out: T1/2, geometric mean (converted)", "procedure": "The ratio was defined as test/reference. In addition, the intraparticipant variability were also presented. […] No formal interim analyses were performed for this study."}, "[3]": {"conditions": "Part 2, Belumosudil alone (Day 5), 200 mg"}, "[4]": {"conditions": "Part 2, Dabigatran etexilate + belumosudil (Day 12), 200 mg QD"}}, "note": "Like-named read-outs stand apart in the source and are kept apart here.", "data": [{"compound": "CC(C)NC(=O)COc1cccc(-c2nc(Nc3ccc4[nH]ncc4c3)c3ccccc3n2)c1", "note": "[belumosudil, 2-{3-[4-(1H-indazol-5-ylamino)-2-quinazolinyl]phenoxy}-N-(propan-2-yl) acetamide]", "values": [{"measurement": "genotoxicity", "setting": "[1]", "result": "not genotoxic"}, {"measurement": "AUC(0-tau), geometric mean", "setting": "[2]; [3]", "result": 8490, "unit": "ng·h/mL"}, {"measurement": "Cmax, geometric mean", "setting": "[2]; [3]", "result": 1710, "unit": "ng/mL"}, {"measurement": "T1/2, geometric mean", "setting": "[2]; [3]", "result": 6.199, "unit": "h"}, {"measurement": "AUC(0-last), geometric mean", "setting": "[2]; [4]", "result": "12 000 ng · h/mL"}, {"measurement": "Cmax, geometric mean", "setting": "[2]; [4]", "result": 2180, "unit": "ng/mL"}, {"measurement": "T1/2, geometric mean", "setting": "[2]; [4]", "result": 10.371, "unit": "h"}, {"measurement": "AUC", "setting": "[2]; male, human, plasma, oral, 200 mg QD, read-out: AUC(0-tau), geometric mean", "result": 11000, "unit": "ng·h/mL"}, {"measurement": "half-life", "setting": "[2]; male, human, plasma, oral, 200 mg, Part 2, Belumosudil alone (Day 5), 200 mg", "result": "~6", "unit": "h"}, {"measurement": "half-life", "setting": "[2]; male, human, plasma, oral, 200 mg, Part 2, Dabigatran etexilate + belumosudil (Day 12), 200 mg QD", "result": "~10", "unit": "h"}, {"measurement": "Tmax", "setting": "[2]; male, human, plasma, oral, 200 mg, read-out: median Tmax", "result": "1.5 to 2", "unit": "h"}]}]}
